Patent US4293489A, “Derivatives of A-30912A nucleus” (Eli Lilly and Company, priority 1980, dated 1981)
Like-named read-outs stand apart in the source and are kept apart here. Starred links: 1 amine or outer side, 2 acyl side, 3 side chain; linkers in the order of their positions; H or OH if unused. Positions of bridges follow the written chain, without caps; N, C: chain ends. Non-standard residues stand in square brackets, D forms with d. Residues, ends and D or L forms follow the SMILES beside them. *: point of attachment. Orn(4R-OH,5R-OH) = O=C([C@H](C[C@@H](O)[C@@H](O)N[*:3])N[*:1])[*:2]; hTyr(3S-OH,4S-OH) = N[C@H](C(=O)O)[C@H](O)[C@@H](O)c1ccc(O)cc1; Benzoyl(4-dodecyloxy) = CCCCCCCCCCCCOc1ccc(C(=O)*)cc1; Benzoyl(4-OC10H21) = CCCCCCCCCCOc1ccc(C(=O)*)cc1; Pro(3S-OH,4S-Me) = C[C@H]1CN[C@H](C(=O)O)[C@H]1O; X28 = CCCCCCCC[S+]([O-])c1ccc(C(=O)*)cc1; X20 = CCCCCCCCCCCCCCOc1ccc(C(=O)*)cc1; X24 = CCCCCCCCCCCCCCOc1cccc(C(=O)*)c1; X27 = CCCCCCCCCCCCOc1cccc(CC(=O)*)c1; Hyp = O=C(O)[C@@H]1C[C@@H](O)CN1; X6 = CCCCCCCCCCSc1ccc(C(=O)*)cc1; X7 = CCCCCCCCSc1ccc(C(=O)*)cc1

Experiments:
Candida albicans A-26 [1] = experiment: Therapeutic activity against Candida albicans A-26 infection in X-irradiated mice, lowest active dose; type: in vivo; settings: A26, light or radiation study, sc
Experimental: (§1) The results of in vivo tests to evaluate the effectiveness of the compounds of Examples 3 and 4 against an infection caused by Candida albicans A-26 in mice are given in Table 13, where activity is measured by the ED50 value (the dose in mg/kg. required to cure 50% of the test animals). In a separate test, the results of which are also summarized in Table 13, activity is indicated by the lowest dose at which a significant anti-fungal effect is observed. In this test, groups of male albino mice (specific pathogen free), weighing 18 to 20 grams, are infected intravenously with Candida albicans A-26. The animals are X-irradiated 24 hours prior to infection at about 50 roentgens per minute for 8 minutes (400 total dose) to reduce immune responses to the infecting organism. At 0, 4, and 24 hours post infection each group of mice is given graded doses subcutaneously of the test compound as a suspension in 33% polyethylene glycol (PEG)-water. The day of death for each animal is recorded.
(§2) *Dosage Schedules: A. = 40, 20, 15 and 10 mg/kg; Dosages given 0, 4, and
(§3) 24 hours post injection as suspension of test compound in 30% PEGH2
(§4) O. Number of mice receiving test compounds at each dosage level: 6 mice
(§5) per group. Number of mice in control (untreated) group: 10 mice per group

Candida albicans A-26 [2] = experiment: Therapeutic activity against Candida albicans A-26 infection in mice, ED50; type: in vivo; settings: doses 0, 4 and 24 hours post infection, increase in survival time vs control, Reed-Muench
Experimental: as §1, §2, §3, §4, §5
**As measured by increase in survival time of treated animals versus
control, calculated by method of Reed v Mueuch, American J. Hygiene, 27,

[3] = X-irradiated mice, subcutaneous at 0, 4 and 24 hours post infection, survival, read-out: Lowest Active Dose
[4] = Candida albicans, A26, sc, read-out: ED50
[5] = read-out: Lowest Active Dose, X-irradiated mice, subcutaneous at 0, 4 and 24 hours post infection, survival

Compound	minimal effective dose (Candida albicans A-26 [1]; [3])	ED50 (Candida albicans A-26 [2]; [4])	minimal effective dose (Candida albicans A-26 [1]; [5])	ED50 (Candida albicans A-26 [2])
CCCCCCCCCCCCCCOc1cccc(C(=O)N[C@H]2C[C@@H](O)[C@@H](O)NC(=O)[C@@H]3[C@@H](O)[C@@H](C)CN3C(=O)[C@H]([C@@H](C)O)NC(=O)[C@H]([C@H](O)[C@@H](O)c3ccc(O)cc3)NC(=O)[C@@H]3C[C@@H](O)CN3C(=O)[C@H]([C@@H](C)O)NC2=O)c1 (X24-[Orn(4R-OH,5R-OH)]T[Hyp][hTyr(3S-OH,4S-OH)]T[Pro(3S-OH,4S-Me)]; lactam 1-C)	> 40 mg/kg	> 50 mg/kg	–	–
CCCCCCCCCCCCOc1cccc(CC(=O)N[C@H]2C[C@@H](O)[C@@H](O)NC(=O)[C@@H]3[C@@H](O)[C@@H](C)CN3C(=O)[C@H]([C@@H](C)O)NC(=O)[C@H]([C@H](O)[C@@H](O)c3ccc(O)cc3)NC(=O)[C@@H]3C[C@@H](O)CN3C(=O)[C@H]([C@@H](C)O)NC2=O)c1 (X27-[Orn(4R-OH,5R-OH)]T[Hyp][hTyr(3S-OH,4S-OH)]T[Pro(3S-OH,4S-Me)]; lactam 1-C)	20 mg/kg	7.4 mg/kg	–	–
CCCCCCCC[S+]([O-])c1ccc(C(=O)N[C@H]2C[C@@H](O)[C@@H](O)NC(=O)[C@@H]3[C@@H](O)[C@@H](C)CN3C(=O)[C@H]([C@@H](C)O)NC(=O)[C@H]([C@H](O)[C@@H](O)c3ccc(O)cc3)NC(=O)[C@@H]3C[C@@H](O)CN3C(=O)[C@H]([C@@H](C)O)NC2=O)cc1 (stereo partly drawn) (X28-[Orn(4R-OH,5R-OH)]T[Hyp][hTyr(3S-OH,4S-OH)]T[Pro(3S-OH,4S-Me)]; lactam 1-C)	> 40 mg/kg	56.6 mg/kg	–	–
CCCCCCCCCCOc1ccc(C(=O)N[C@H]2C[C@@H](O)[C@@H](O)NC(=O)[C@@H]3[C@@H](O)[C@@H](C)CN3C(=O)[C@H]([C@@H](C)O)NC(=O)[C@H]([C@H](O)[C@@H](O)c3ccc(O)cc3)NC(=O)[C@@H]3C[C@@H](O)CN3C(=O)[C@H]([C@@H](C)O)NC2=O)cc1 [drawing 152] ({Benzoyl(4-OC10H21)}-[Orn(4R-OH,5R-OH)]T[Hyp][hTyr(3S-OH,4S-OH)]T[Pro(3S-OH,4S-Me)]; lactam 1-C)	–	8 mg/kg	5 mg/kg	–
CCCCCCCCCCCCOc1ccc(C(=O)N[C@H]2C[C@@H](O)[C@@H](O)NC(=O)[C@@H]3[C@@H](O)[C@@H](C)CN3C(=O)[C@H]([C@@H](C)O)NC(=O)[C@H]([C@H](O)[C@@H](O)c3ccc(O)cc3)NC(=O)[C@@H]3C[C@@H](O)CN3C(=O)[C@H]([C@@H](C)O)NC2=O)cc1 [drawing 153] ({Benzoyl(4-dodecyloxy)}-[Orn(4R-OH,5R-OH)]T[Hyp][hTyr(3S-OH,4S-OH)]T[Pro(3S-OH,4S-Me)]; lactam 1-C)	2.5 mg/kg	< 5 mg/kg	≤ 5 mg/kg	3.9 mg/kg
CCCCCCCCCCCCCCOc1ccc(C(=O)N[C@H]2C[C@@H](O)[C@@H](O)NC(=O)[C@@H]3[C@@H](O)[C@@H](C)CN3C(=O)[C@H]([C@@H](C)O)NC(=O)[C@H]([C@H](O)[C@@H](O)c3ccc(O)cc3)NC(=O)[C@@H]3C[C@@H](O)CN3C(=O)[C@H]([C@@H](C)O)NC2=O)cc1 [drawing 154] (X20-[Orn(4R-OH,5R-OH)]T[Hyp][hTyr(3S-OH,4S-OH)]T[Pro(3S-OH,4S-Me)]; lactam 1-C)	–	3 mg/kg	5 mg/kg	–
CCCCCCCCSc1ccc(C(=O)N[C@H]2C[C@@H](O)[C@@H](O)NC(=O)[C@@H]3[C@@H](O)[C@@H](C)CN3C(=O)[C@H]([C@@H](C)O)NC(=O)[C@H]([C@H](O)[C@@H](O)c3ccc(O)cc3)NC(=O)[C@@H]3C[C@@H](O)CN3C(=O)[C@H]([C@@H](C)O)NC2=O)cc1 [drawing 155] (X7-[Orn(4R-OH,5R-OH)]T[Hyp][hTyr(3S-OH,4S-OH)]T[Pro(3S-OH,4S-Me)]; lactam 1-C)	–	37.4 mg/kg	10 mg/kg	–
CCCCCCCCCCSc1ccc(C(=O)N[C@H]2C[C@@H](O)[C@@H](O)NC(=O)[C@@H]3[C@@H](O)[C@@H](C)CN3C(=O)[C@H]([C@@H](C)O)NC(=O)[C@H]([C@H](O)[C@@H](O)c3ccc(O)cc3)NC(=O)[C@@H]3C[C@@H](O)CN3C(=O)[C@H]([C@@H](C)O)NC2=O)cc1 [drawing 156] (X6-[Orn(4R-OH,5R-OH)]T[Hyp][hTyr(3S-OH,4S-OH)]T[Pro(3S-OH,4S-Me)]; lactam 1-C)	20 mg/kg	28 mg/kg	–	–
